Measurements as given in US5753631A, “Intercellular adhesion mediators” (Cytel Corporation, priority 1995, dated 1998).

Key:
[1] = biological target: T1, P-Selectin (Homo sapiens, UniProt P16109); experiment: Inhibition of neutrophil adhesion to thrombin activated platelets by glycolipids in liposomes; assay type: cell-based; conditions: for IC50: read-out: AMOUNT REQUIRED FOR 50% INHIBITION
T1 construct: endogenous in cells
T1 sequence (P16109 42-830): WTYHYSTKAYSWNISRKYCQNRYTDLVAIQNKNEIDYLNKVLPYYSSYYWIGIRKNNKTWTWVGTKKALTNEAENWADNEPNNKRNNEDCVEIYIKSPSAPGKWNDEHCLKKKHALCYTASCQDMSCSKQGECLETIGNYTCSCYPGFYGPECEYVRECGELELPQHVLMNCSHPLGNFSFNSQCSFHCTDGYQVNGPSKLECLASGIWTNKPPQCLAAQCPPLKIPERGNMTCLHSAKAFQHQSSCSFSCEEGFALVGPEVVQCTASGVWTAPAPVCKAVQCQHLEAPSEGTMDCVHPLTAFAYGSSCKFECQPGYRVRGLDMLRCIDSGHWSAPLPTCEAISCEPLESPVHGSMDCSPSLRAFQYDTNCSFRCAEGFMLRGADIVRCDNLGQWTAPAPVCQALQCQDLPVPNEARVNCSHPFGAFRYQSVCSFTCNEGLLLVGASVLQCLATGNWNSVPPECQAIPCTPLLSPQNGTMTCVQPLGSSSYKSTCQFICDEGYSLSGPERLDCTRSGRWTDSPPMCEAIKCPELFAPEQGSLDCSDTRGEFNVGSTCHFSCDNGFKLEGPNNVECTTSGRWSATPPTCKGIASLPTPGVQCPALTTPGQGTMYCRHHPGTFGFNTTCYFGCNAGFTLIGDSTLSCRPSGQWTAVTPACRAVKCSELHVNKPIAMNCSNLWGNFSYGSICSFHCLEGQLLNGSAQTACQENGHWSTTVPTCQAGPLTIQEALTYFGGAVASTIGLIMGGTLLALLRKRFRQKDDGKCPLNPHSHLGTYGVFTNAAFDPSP
Procedure: 3. For the assay, 20 μl of the platelet suspension (2×10^8 /ml) was placed in a microcentrifuge tube. […] Twenty μl of the neutrophil preparation (2×10^6 /ml) was then added and the tubes were allowed to stand for a further 20 min at room temperature.
(§1) 4. Adhesion of activated platelets to the neutrophils was assessed microscopically. One hundred neutrophils were evaluated. They were scored as positive if 2 or more platelets were attached and negative if less than 2 platelets were bound. The percent of cells with 2 or more bound platelets was calculated.
This example describes experiments testing various glycolipid structures on liposomes. In particular, SY2, a sialylated polysaccharide in which the fucose, instead of being attached to the ultimate GlcNAc as in SLe^x, is attached to the penultimate GlcNAc, was tested. Platelets and neutrophils were isolated by the methods described above. Platelets were activated with thrombin and then incubated with dilutions of various glycolipids embedded in liposomes prepared as described above. Neutrophils were added and the effect of the glycolipids on the adhesion of neutrophils to activated platelets was determined.
Structures of the various glycolipids examined are as follows: SDiY2, NeuGcα2,3Galβ1,4(Fucα1,3)GlcNacβ1,3Galβ1,4 (Fucα1,3)GlcNAcβ1,3Galβ1,4Glcβ1,1Cer; SLe^x, NeuGcα2,3Galβ1,4 (Fucα1,3)GlcNAcβ1,3Galβ1,4Glcβ1,1Cer; SY2, NeuGcα2,3Galβ1,4 GlcNAcβ1,3Galβ1,4(Fucα1,3)GlcNAcβ1,3Galβ1,4Glcβ1,1Cer; SH, NeuGcα2,3Galβ1,4GlcNAcβ1,3Galβ1,4GlcNAcβ1,3Galβ1,4Glcβ1,1Cer; SPG, NeuGcα2,3Galβ1,4GlcNAcβ1,3Galβ1,4Glcβ1,1Cer.
All materials were prepared as described above. Platelets and neutrophils were isolated by the methods described. Platelets were activated with thrombin and then incubated with dilutions of various glycolipids contained in liposomes. Neutrophils were added and the effect of the glycolipids on the adhesion of neutrophils to activated platelets was determined.
The results of an experiment in which synthetic SLe^x (NeuAc) and a preparation of SLe^x prepared by enzymatic fucosylation of sialylparagloboside purified from bovine erythrocytes, SLe^x (NeuGc), were directly compared are shown in Table 4.

[2] = biological target: T1, P-Selectin; experiment: Oligosaccharide/polysaccharide inhibition of neutrophil adhesion to thrombin activated platelets; assay type: cell-based; conditions: for IC50: Table 2, mean of three identical experiments, read-out: AMOUNT REQUIRED FOR 50% INHIBITION (converted)
Procedure: (§2) Briefly, platelets and neutrophils were isolated by the methods described above. Platelets were activated with thrombin and then incubated with dilutions of various oligosaccharides. Neutrophils were added, and the effect of the saccharides on the adhesion of neutrophils to activated platelets was determined.
1. Platelets were isolated as described above and were activated (2×10^8 /ml) by incubation for 20 min at room temperature with thrombin at a final concentration of 0.25 U/ml.
2. Neutrophils were isolated by layering heparinized blood over Mono-Poly Resolving Medium (Ficoll-Hypaque-Flow Laboratories), followed by centrifugation for 25 min at 2000 rpm and then, a further 25 min at 2500 rpm as described above.
3. For the assay, 20 μl of the platelet suspension (2×10^8 /ml) was placed in a microcentrifuge tube. An equal volume of the oligosaccharide preparations at concentrations from 200 μg/ml to 0.3 μg/ml, or of glycolipid-liposome preparations (prepared as described above), at concentrations from 2 μg/ml to 0.25 μg/ml, was added and the tubes were allowed to stand at room temperature for 20 min. Twenty μl of the neutrophil preparation (2×10^6 /ml) was then added and the tubes were allowed to stand for a further 20 min at room temperature.
as §1
as §2, with “added” for “added,”
Platelets were isolated as described above and were activated (2×10^8 /ml) by incubation for 20 min at room temperature with thrombin at a final concentration of 0.25 U/ml.
Neutrophils were isolated by layering heparinized blood over Mono-Poly Resolving Medium (Ficoll-Hypaque, Flow Laboratories), followed by centrifugation for 25 min at […] and then, a further 25 min at 2500 rpm as described above.
For the assay, 20 μl of the platelet suspension (2×10^8 /ml) was placed in an Eppendorf centrifuge tube. An equal volume of the oligosaccharide preparations at concentrations from 500 μg/ml to 2.0 μg/ml was added and the tubes were allowed to stand at room temperature for 20 min. Twenty […] of the neutrophil preparation (2×10^6 /ml) was then added and the tubes were allowed to stand for a further 20 min at room temperature.
as §1, with “Adhesion” for “4. Adhesion”

[3] = Table 3, experiment not specified

Compound: NeuGcα2,3Galβ1,4(Fucα1,3)GlcNacβ1,3Galβ1,4 (Fucα1,3)GlcNAcβ1,3Galβ1,4Glcβ1,1Cer [SdiY2]
- IC50 [1, 3]: 360 nM

Compound: NeuGcα2,3Galβ1,4 GlcNAcβ1,3Galβ1,4(Fucα1,3)GlcNAcβ1,3Galβ1,4Glcβ1,1Cer [SY2]
- IC50 ([1]; Table 3, Exp 1): 325 nM
- IC50 ([1]; Table 3, Exp 2): 345 nM
- inhibition of P-Selectin mediated adhesion of neutrophils to thrombin activated platelets ([1]; in words, relative): equally as well as did SLe^x and SDiY2

Compound: NeuGcα2,3Galβ1,4GlcNAcβ1,3Galβ1,4Glcβ1,1Cer [SPG, reference compound]
- AMOUNT REQUIRED FOR 50% INHIBITION [1, 3]: No Inh.

Compound: CC(=O)N[C@H]1[C@H]([C@H](O)[C@H](O)CO)O[C@@](O[C@H]2[C@@H](O)[C@@H](CO)O[C@@H](O[C@H]3[C@H](O[C@@H]4O[C@@H](C)[C@@H](O)[C@@H](O)[C@@H]4O)[C@@H](NC(C)=O)C(O)O[C@@H]3CO)[C@@H]2O)(C(=O)O)C[C@@H]1O (stereo partly shown) [SLe^x (tetra), NeuAcα2,3Galβ1,4 (Fucα1,3)GlcNAc]
- IC50 [2]: 54000 nM
- times more required for 50% inhibition than of the SLe^x-hexasaccharide ([2]; tetrasaccharide versus hexasaccharide): approximately 20 times

Compound: NeuGcα2,3Galβ1,4GlcNAcβ1,3Galβ1,4GlcNAcβ1,3Galβ1,4Glcβ1,1Cer [SH, reference compound]
- AMOUNT REQUIRED FOR 50% INHIBITION [1, 3]: No Inh.

Compound: CC(=O)N[C@H]1[C@H](O[C@@H]2[C@@H](O)[C@H](O)O[C@H](CO)[C@@H]2O)O[C@H](CO)[C@@H](O[C@@H]2O[C@H](CO)[C@H](O)[C@H](O[C@]3(C(=O)O)C[C@H](O)[C@@H](NC(C)=O)[C@H]([C@H](O)[C@H](O)CO)O3)[C@H]2O)[C@@H]1O[C@@H]1O[C@@H](C)[C@@H](O)[C@@H](O)[C@@H]1O [SLe^x (penta), NeuAcα2,3Galβ1,4-(Fucα1,3)GlcNacβ1,3Galβ]
- IC50 [2]: 2200 nM

Compound: CC(=O)N[C@H]1[C@H]([C@H](O)[C@H](O)CO)O[C@@](O[C@H]2[C@@H](O)[C@@H](CO)O[C@@H](O[C@H]3[C@H](O[C@@H]4O[C@@H](C)[C@@H](O)[C@@H](O)[C@@H]4O)[C@@H](NC(C)=O)C(O)O[C@@H]3CO)[C@@H]2O)(C(=O)O)C[C@@H]1O (stereo partly shown) [SLe^x (NeUAc)]
- IC50 ([1]; Table 4): 670 nM
